Assay results reported in US12263248B2, “Compounds and compositions for intracellular delivery of therapeutic agents” (ModernaTX, Inc., priority 2018, dated 2025).

How the values were obtained:
[1] = Particle size and polydispersity index of nanoparticle compositions (Zetasizer Nano ZS); type: physicochemical; conditions: Table 1A; for Size (nm): lipid:DSPC:cholesterol:PEG-DMG 50:10:38.5:1.5 mol %
Outline: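 Nanoparticle compositions are diluted in 1×PBS, then size and polydispersity index are read on a Zetasizer Nano ZS instrument.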

[2] = Encapsulation efficiency of RNA (QUANT-IT RIBOGREEN RNA assay); type: physicochemical; conditions: Table 1A
Outline: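 RiboGreen fluorescence (ex ~480, em ~520 nm) compared between intact samples and Triton X-100-lysed samples after 15 min at 37 °C in TE buffer, pH 7.5. Percent free RNA is the blank-corrected intact/disrupted ratio.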

[3] = Apparent (surface) pKa of the LNP formulation (TNS assay); type: physicochemical; conditions: Table 1A
Outline: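 LNP (0.04 mg/mL mRNA) mixed with TNS reagent in 21 buffers spanning about pH 3-12, in triplicate; fluorescence plotted against pH as sigmoidal curve. Apparent pKa taken as […] curve inflection point; validated in 1× PBS and 20 mM Tris w/8% sucrose.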

luciferase (Luc) mRNA [4] = experiment: Luc expression, whole body bioluminescence after intravenous administration to mice; type: in vivo; conditions: for Total Flux 3 hours / Total Flux 6 hours / Total Flux 24 hours: Luc mRNA
Outline: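 Luc mRNA nanoparticle formulations given intravenously to mice (n=6) at 0.5 mg/kg; whole-body bioluminescence imaged at 3, 6 and 24 h. CD-1 mice received IP D-luciferin (200 μL of 15 mg/mL) 15 min before imaging; total flux quantified by region of interest.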

luciferase (Luc) mRNA [5] = experiment: Luc expression in liver, lung, spleen and femur 6 hours after intravenous administration; type: in vivo; conditions: mice, intravenous, 0.5 mpk
Outline: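 LNP-formulated mRNA given IV to mice (n=3) at 0.5 mpk; at 6 h, bioluminescence imaged ex vivo 15 min after IP D-luciferin (15 mg/mL, 200 μL), organs imaged within 25 min. Values are total flux by region of interest.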

IL-6, IP-10 = experiment: Cytokine induction in mice upon intravenous administration; type: in vivo; parameters: Cytokine induction IL-6 / Cytokine induction IP-10: unit not given here; conditions: 0.5 mpk, 6 hours; for IP-10 induction: i.v., in words; for Cytokine induction IL-6 / Cytokine induction IP-10: intravenous
Source text: The introduction of foreign material into a mammalian body induces an innate immune response that promotes cytokine production. Such immune responses to, for example, nanoparticle compositions including therapeutic and/or prophylactics, are undesirable. The induction of certain cytokines is thus measured to evaluate the […] of nanoparticle compositions. The concentrations of various cytokines in mice upon intravenous administration of nanoparticle compositions presented in Table 1A at a dosage of 0.5 mpk was measured at 6 hours. The standard MC3 formulation and a PBS control were also tested. As is evident in Table 7, IL-6 induction was highest for compositions including Compounds 1, 3, 9, 19, and 26, while IP-10 induction was highest for compositions including Compounds 3, 4, 7, 20, and 26. IL-6 induction was lowest for compositions including Compounds 4, 11, 12, and 28. IP-10 induction was lowest for compositions including Compounds 10, 11, 12, 13, 15, 17, and 18.

Row | PDI [1] | Size (nm) [1] [nm] | EE (%) [2] [%] | pKa [3] | IP-10 induction (IL-6, IP-10) | Cytokine induction IL-6 (IL-6, IP-10) | Cytokine induction IP-10 (IL-6, IP-10) | SMILES | Total Flux 3 hours (luciferase (Luc) mRNA [4]; mice, i.v., 0.5 mg/kg) | Total Flux 6 hours (luciferase (Luc) mRNA [4]; mice, i.v., 0.5 mg/kg) | Total Flux 24 hours (luciferase (Luc) mRNA [4]; mice, i.v., 0.5 mg/kg) | Total Flux Femur (luciferase (Luc) mRNA [5]) | Total Flux Liver (luciferase (Luc) mRNA [5]) | Total Flux Lung (luciferase (Luc) mRNA [5]) | Total Flux Spleen (luciferase (Luc) mRNA [5]) | flux at all timepoints measured (luciferase (Luc) mRNA [4]; mice, i.v., 0.5 mg/kg, 3, 6 and 24 hour, in words) | Fold increase in total body Luc Flux relative to MC3 at 6 h (luciferase (Luc) mRNA [4]; Table 3A, i.v. administration)
1 | 0.13 | 79.4 | 92.28 | 5.67 | lowest | 29.07 | 126.29 | CCCCCCCCCOC(=O)CCCCCCCN(CCCCCCCC(=O)OC(CCCCCCCC)CCCCCCCC)CC(O)CC (stereo not drawn) [Compound 13, Heptadecan-9-yl 8-((2-hydroxybutyl)(8-(nonyloxy)-8-oxooctyl)amino) octanoate] | 1.02E+08 | 1.56E+08 | 1.47E+06 | 1.35E+05 | 2.25E+07 | 2.21E+05 | 7.09E+05 | – | –
2 | 0.094 | 111.1 | 92.47 | 5.58 | lowest | 64.65 | 184.30 | CCCCCCCCCOC(=O)CCCCCCCN(CCCCCCCC(=O)OC(CCCCCCCC)CCCCCCCC)CCOC [Compound 15, Heptadecan-9-yl 8-((2-methoxyethyl)(8-(nonyloxy)-8-oxooctyl)amino)octanoate] | 4.31E+08 | 4.41E+07 | 2.05E+06 | 5.93E+04 | 6.23E+06 | 6.41E+04 | 9.01E+05 | – | –
3 | 0.24 | 85.2 | 91.84 | 7.76 | lowest | 138.43 | 156.41 | CCCCCCCCCOC(=O)CCCCCCCN(CCCCCCCC(=O)OC(CCCCCCCC)CCCCCCCC)CCOCCN(C)C [Compound 17, Heptadecan-9-yl 8-((2-(2-(dimethylamino)ethoxy)ethyl) (8-(nonyloxy)-8-oxooctyl)amino)octanoate] | 7.72E+06 | 3.58E+06 | 6.79E+05 | 9.55E+04 | 5.52E+05 | 9.95E+04 | 5.58E+06 | significantly lower flux | –
4 | 0.16 | 119.0 | 91.32 | 5.52 | – | 32.01 | 206.75 | CCCCCCCCCOC(=O)CCCCCCCN(CCCCCCCC(=O)OC(CCCCCCCC)CCCCCCCC)CCCOC [Compound 16, Heptadecan-9-yl 8-((3-methoxypropyl)(8-(nonyloxy)-8-oxooctyl)amino) octanoate] | 2.58E+08 | 5.45E+08 | 2.37E+07 | 2.55E+05 | 3.17E+07 | 4.18E+05 | 5.43E+06 | – | 0.02
